According to publication PMC5555576, “Selective small-chemical inhibitors of protein arginine methyltransferase 5 with anti-lung cancer activity” (PLoS ONE, 2017):
Values joined by “and” are separate entries in the source; they are usually repeats but may differ in a detail not shown here. Equal values may be shown once. Read-outs that look alike come from different tables or passages of the source. Blank lines part the entries; values can stand above or below the compound they belong to.

Assays:
PRMT5 [1] = conditions: cited from earlier work; for selectivity for PRMT5: versus PRMT1, CARM1, or PRMT7
PRMT5 [2] = biological target: T1, PRMT5 (Homo sapiens, UniProt O14744); assay: Radioactive methyltransferase assay, PRMT5; assay type: biochemical; conditions: methylation of SmD3 by PRMT5; Table 1 prints no unit, μM; read-out: IC50
T1 construct: His6; made in house; host or cells: E. coli BL21(ED3) [sic]
Protocol: (§1) Methylation reactions were performed as previously described with a few modifications. Reaction mixtures (40 μl) containing 1.2 μg of PRMT5, 98 ng of PRMT1 or 98 ng of PRMT3; 2 μg of SmD3 or histones; 1 μCi of S-[methyl-^3H]adenosylmethionine (H^3-AdoMet; PerkinElmer); and 5 μM AdoMet were incubated in 50 mM Tris-HCl (pH 7.5)–1 mM EGTA–1 mM EDTA at 30°C for 2 h. Reaction mixtures (20 μl) were boiled in 5 μl of 5x SDS sample buffer and separated on a 15% polyacrylamide gel. Gels were fixed for 30 min in 40% methanol–10% acetic acid, incubated in 20 ml of Amplify (Amersham Life Science) for 10 min, dried and exposed to X-ray film at -80°C. IC50 was calculated by linear regression analysis of percent inhibition. The other half (20 μl) of each reaction mixture was spread onto DE81 chromatography paper discs (Whatman). The paper discs were washed 4 times with 50 mM NaHCO3 and dried. The amounts of methylated products were quantified by liquid scintillation.
In vitro methylation reactions were performed with recombinant PRMT5 (1.2 μg), PRMT1 ([…]) or PRMT3 (89 ng); [H^3]-AdoMet; and different substrates in the presence of identified compounds. […] The recombinant SmD3 (2 μg) was used as the substrate in the absence (lane 2) or presence of 1, 10 or 100 μM compounds as indicated. Reaction mixtures were separated on an SDS–15% polyacrylamide gel and the gel was dried under vacuum and exposed to film. […] Recombinant histones H4 or H2A (1 μg) were used as substrates of PRMT5 in the methylation assay in the absence or presence of 100 μM compounds as indicated. Reaction mixtures were spread onto DE81 chromatography paper discs. After a wash, the amounts of methylated products on discs were quantified by liquid scintillation. […] PRMT1 was incubated with purified histones (1 μg) or recombinant E2F1 (1 μg) as substrates in the absence (lane 2) or presence of 100 μM compounds as indicated. Reaction mixtures were separated on an SDS–15% polyacrylamide gel and the gel was dried and exposed to film.

PRMT5 F225M [3] = biological target: T2, PRMT5 F225M (Homo sapiens, UniProt O14744, F327M); assay: Radioactive methyltransferase assay, mutant PRMT5; assay type: biochemical; conditions: F225M mutant PRMT5, SmD3 substrate, Fig 4D
T2 construct: His6; made in house; host or cells: bacteria (E. coli BL21(ED3) for the wild type)
Protocol: as §1
(§2) The inhibitory activity of the compounds may stem from this interaction. To test this possibility, we conducted site-directed mutagenesis to mutate Phe225 in human PRMT5 (corresponding to Phe379 in the C. elegans PRMT5) to Met. The mutated PRMT5 was expressed in bacteria and purified by Ni-nitrilotriacetic acid (Ni-NTA) affinity chromatography (Fig 4A). The activity of the mutant PRMT5 was examined by the radioactive methyltransferase assay. […] The IC50 values for the mutant PRMT5 increased from 4.3 to 183 folds higher than those for the wild type PRMT5 (Fig 4D). […] The results also can help explain the specificity of the compounds to PRMT5. However, the contribution of this interaction to inhibition varies among the compounds. For example, compound C2 interacts with three amino acid residues (Lys451, Glu450, and Phe379) (Fig 3A) with the mutation of Phe to Met resulting in a 50-times higher IC50 (Fig 4C and 4D).
(§3) Fig 4 The conserved phenylalanine residue in PRMT5 is critical for inhibition by the five compounds. A, DS-PAGE of recombinant wild type (WT) and F225M mutant (MT) PRMT5. The gel was stained with Coomassie Brilliant Blue R250. A band corresponding to an unknown bacterial protein is indicated (star). B, The F225M mutation increased the methytransferase activity of PRMT5. In vitro methylation reactions were performed with recombinant wild type (lanes 2–4) or mutant (lanes 5–7) PRMT5 (1.2, 2.4 or 4.8 μg) and SmD3 (2 μg) as the substrate. C, The F225M mutation in PRMT5 decreased inhibition of arginine methylation by the compounds. The reaction mixture contained SmD3 (2 μg); wild type or mutant PRMT5 (1.2 μg); and 1, 10 or 100 μM compounds as indicated. D, The F225M mutation in PRMT5 […] of the compounds, as determined by quantitation and analysis of methylation assay results. TEXT PRINTED IN THE PICTURE: (D) C2: IC50 (μM) PRMT5: 0.1; IC50 (μM) PRMT5 F225M: 5.0 | (D) C5: IC50 (μM) PRMT5: 0.8; IC50 (μM) PRMT5 F225M: 3.5 | (D) C6: IC50 (μM) PRMT5: 0.5; IC50 (μM) PRMT5 F225M: 7.0 | (D) C9: IC50 (μM) PRMT5: 6.0; IC50 (μM) PRMT5 F225M: 45.0 | (D) C11: IC50 (μM) PRMT5: 0.3; IC50 (μM) PRMT5 F225M: 55.0

PRMT5 F225M [4] = assay: Radioactive methyltransferase assay, mutant PRMT5; assay type: biochemical, human; conditions: Phe225 to Met
Protocol: as §1, §2, §3

PRMT5 [5] = biological target: T1, PRMT5; assay: Steady-state kinetic analysis of PRMT5 inhibition (time-dependent inhibition assay); assay type: biochemical
Protocol: Different amounts of compound C2 or C5 were present in the final methylation reaction mixtures with 1.2 μg of PRMT5, 5 μM AdoMet, 2 μCi of H^3-AdoMet and various concentrations of SmD3. After a 10-, 20- or 30-min incubation at 30 °C or no incubation, the reaction mixtures were spread onto DE81 chromatography paper discs and the amounts of methylated products were quantified by liquid scintillation. Amounts (counts per minute [cpm]) of methylated products and incubation time (minutes) were plotted and reaction velocity (cpm per minute) was deduced.
To understand the mechanism of inhibition of identified compounds, we analyzed the kinetic pattern of inhibition using steady-state enzymatic measurements. The velocities of PRMT5 methylation of SmD3 were measured at several selected concentrations of compounds C2 and C5 over a range of SmD3 concentrations. Plotted in the double-reciprocal format with 1/velocity versus 1/[SmD3]
Fig 5 Steady-state kinetic analysis of PRMT5 inhibition by compounds C2 and C5. Double-reciprocal plot of reaction velocities (cpm per minute) versus concentrations of SmD3. Methylation reaction mixtures contained various concentrations of C2 (left) or C5 (right), various concentrations of SmD3, 1.2 μg of PRMT5 and 5 μM AdoMet. The mixtures were incubated for different times and the amounts of methylated products were quantified using DE81 paper and liquid scintillation. Reaction velocity was calculated as H^3 incorporation (cpm) into SmD3 per minute.

A549 cells = assay: Cellular permeability and stability by HPLC of cell extracts; assay type: in vitro ADME; conditions: 2 hr in medium with compound
Protocol: Waters 2695 HPLC System and a C18 column (Symmetry, 3.6 x 75 mm) were used. The column was equilibrated with 10% acetonitrile and eluated with a linear gradient from 10% acetonitrile to 100% acetonitrile in 60 min. Compounds were dissolved in 10% acetonitrile and the purchased compounds (ChemBridge) were used as the standards.
We then determined whether the identified compounds are cell-permeable. Lung cancer A549 cells were cultured in medium containing various concentrations of the respective compound for 2 hr. Cells were harvested and washed with PBS. The compounds were extracted with ethyl acetate from cells and analyzed by HPLC with a C18 column using the purchased compound as the standard. Compounds C2, C5, C9 and C11 are cell-permeable (Fig 6A), which is consistent with their tPSAs <140 angstroms square (Table 1). […] We even noticed that the compound C5 crystalized inside the cells.
A, The cellular permeability of identified compounds. Lung cancer A549 cells were cultured in the presence of various concentrations of compounds for 2h and the compound concentrations in the cell were determined by HPLC chromatography with a C18 column. B, The cellular stability of identified compounds. Lung cancer A549 cells were cultured in the presence of compounds (20 μM) for 2 h and then the medium was removed. Cells were washed with the medium and cultured for additional 5 or 10 h after the compounds were removed. The compound concentrations in the cell were determined by HPLC chromatography with a C18 column. […] A549 cells were grown in the presence of DMSO or compound C5, C9 or C11 (20 μM). Histones were purified and analyzed by SDS-PAGE stained with Commassie blue (lanes 1–4, bottom) or by Western blot with anti-symmetric dimethyl arginine antibody (SYM10) (lanes 1–4, top). B-Raf was immunoprecipitated with anti-B-Raf antibody from whole cell lysates and submitted for Western blot analysis with anti-B-Raf (lanes 5 and 6, bottom) or anti-symmetric dimethyl arginine (lanes 5 and 6, top) antibody.

[6] = tested on: PRMT5-target genes in A549 cells; assay: Real-time PCR of PRMT5-regulated genes; assay type: cell-based; conditions: 50 μM, 24 hrs
Protocol: We identified a set of genes whose expression was altered by silencing PRMT5 expression in lung cancer A549 cells. A549 cells were treated with C9a and EPZ015666 and expression of 6 identified PRMT5-regulated genes was analyzed. […] The future study would use genome-wide approach to determine genes whose expression is affected by PRMT5 inhibitors.
Supplementary file pone.0181601.s005.tif: S5 Fig PRMT5 inhibitors selectively affect PRMT5-target genes in lung cancer cells. RNAs were isolated from cells cultured in the presence of DMSO, EPZ015666 (Sigma-Aldrich) (50 μM), or C9a (50 μM) for 24 hrs and submitted to RT-RCR analysis of gene expression in cancer cell lines. Relative mRNA levels = mRNA in cells treated with PRMT5-inhibtor/mRNA in DMSo-treated cells. (TIF) Click here for additional data file.

MCL xenograft models = tested on: MCL xenograft models; set-up: method as in PMID 25915199; conditions: cited from earlier work
[7] = tested on: CDK4/6 (Rb pS811) in A549 cells; assay: Western blot of Rb phosphorylation at S811; assay type: cell-based; conditions: 20 μM, 4 h
Source text: The retinoblastoma protein (Rb) is phosphorylated by CKDs in cells.
(TIF) Click here for additional data file.

[8] = single replicate, vs control, actin-normalised, listed as EPZ

T1 sequence (O14744 whole entry): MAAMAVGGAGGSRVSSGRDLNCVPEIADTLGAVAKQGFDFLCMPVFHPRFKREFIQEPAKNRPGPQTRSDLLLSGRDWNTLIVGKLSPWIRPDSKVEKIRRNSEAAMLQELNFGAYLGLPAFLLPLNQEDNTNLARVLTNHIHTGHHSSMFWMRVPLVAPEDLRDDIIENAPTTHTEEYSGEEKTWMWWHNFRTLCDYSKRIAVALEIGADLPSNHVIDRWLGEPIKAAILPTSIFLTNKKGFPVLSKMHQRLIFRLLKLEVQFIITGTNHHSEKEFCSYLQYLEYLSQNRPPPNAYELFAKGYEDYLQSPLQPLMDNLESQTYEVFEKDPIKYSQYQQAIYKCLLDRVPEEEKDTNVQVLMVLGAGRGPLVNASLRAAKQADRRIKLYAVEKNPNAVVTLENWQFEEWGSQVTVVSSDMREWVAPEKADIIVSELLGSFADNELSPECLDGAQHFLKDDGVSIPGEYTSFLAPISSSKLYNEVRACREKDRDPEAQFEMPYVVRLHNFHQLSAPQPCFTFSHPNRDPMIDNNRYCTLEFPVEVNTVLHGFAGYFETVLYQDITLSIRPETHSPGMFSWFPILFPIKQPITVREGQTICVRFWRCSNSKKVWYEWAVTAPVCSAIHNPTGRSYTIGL
T2 sequence (O14744 whole entry F327M): as the sequence (O14744 whole entry) above, with F327M counted along it

IC50 (PRMT5 [2]): 0.5 µM
SMILES: COc1nc(Nc2ccc(-c3nc4ccccc4o3)cc2)nc(OC)n1 [Compound C1]

IC50 (PRMT5 [2]): 0.1 µM | IC50 (PRMT5 F225M [3]): 5 µM | increase of IC50 for mutant PRMT5 over wild type PRMT5 (PRMT5 F225M [4]): 50 fold | mode of inhibition with regard to SAM (PRMT5 [5]): not competitive inhibitors | mode of inhibition with regard to the SmD3 substrate (PRMT5 [5]; double-reciprocal plot): competitive inhibitors | cell permeability (A549 cells): cell-permeable
SMILES: Cc1ccnc(NC(=O)c2ccc(COc3ccc(Cl)cc3)o2)c1 [Compound C2]

IC50 (PRMT5 [2]): 0.6 µM
SMILES: Nc1c(C(=O)Nc2ccccc2)sc2nc3c(cc12)CCC3 [Compound C4]

IC50 (PRMT5 [2]): 0.5 µM | IC50 (PRMT5 F225M [3]): 7 µM | cell permeability (A549 cells): not cell-permeable
SMILES: CCc1ccc(-c2cn3c4ccccc4nc3n2CCN2CCOCC2)cc1 [Compound C6]

IC50 (PRMT5 [2]): 2.5 µM
SMILES: O=C(Nc1nccs1)c1ccc(COc2ccc(F)cc2)o1 [Compound C7]

Further lines, the compound ahead of its results:

SMILES: CCn1c2ccccc2c2cc(CNCc3ccccn3)ccc21 [CMP5]
selectivity for PRMT5 (PRMT5 [1]): specifically inhibited PRMT5 rather than PRMT1, CARM1, or PRMT7

SMILES: CCNC(=O)NCCSC[C@H]1O[C@@H](n2cnc3c(N)ncnc32)[C@H](O)[C@@H]1O [DS-437]
IC50 (PRMT5 [1]; AdoMet competitor, cofactor-binding site): 6000 nM

SMILES: O=C(NC[C@H](O)CN1CCc2ccccc2C1)c1cc(NC2COC2)ncn1 [EPZ015666, reference compound]
EXPRESSION FOLD CHANGE avg BTG2 ([6]; average): […] | EXPRESSION FOLD CHANGE avg FGFR1 ([6]; average): […] | EXPRESSION FOLD CHANGE avg FOXO3 ([6]; average): […] | EXPRESSION FOLD CHANGE avg GLIPR1 ([6]; average): […] | EXPRESSION FOLD CHANGE avg PTTG1 ([6]; average): […] | EXPRESSION FOLD CHANGE avg TIGAR ([6]; average): […] | EXPRESSION FOLD CHANGE BTG2 [6, 8]: […] | EXPRESSION FOLD CHANGE FGFR1 [6, 8]: […] | EXPRESSION FOLD CHANGE FOXO3 [6, 8]: […] | EXPRESSION FOLD CHANGE GLIPR1 [6, 8]: […] | EXPRESSION FOLD CHANGE PTTG1 [6, 8]: […] | EXPRESSION FOLD CHANGE TIGAR [6, 8]: […] | IC50 (PRMT5 [1]): […] | antitumor activity (MCL xenograft models): demonstrated antitumor activity in multiple MCL xenograft models

SMILES: CCn1c2ccccc2c2cc(CNCc3ccccc3OC)ccc21.Cl [HLCL-61]
selectivity for PRMT5 (PRMT5 [1]): specifically inhibited PRMT5 rather than PRMT1, CARM1, or PRMT7

SMILES: CC(=O)c1c(C)c2cnc(Nc3ccc(N4CCNCC4)cn3)nc2n(C2CCCC2)c1=O [Palbociclib, reference compound]
Rb phosphorylation at the site S811 by CDK4/6 [7]: inhibited
